Data taken from patent US20180318311A1, “TRICYCLIC 2-QUINOLINONES AS ANTIBACTERIALS” (priority 2017, published 2018).
Structures can show the parent of a compound that is named as a salt. Where two headings read alike, the source gives them in different places.

What was measured:
Assay type in all cases: cell-based
[1] = tested on: S. aureus ATCC 49951 (NB01006); assay: MIC by broth microdilution, S. aureus NB01006; conditions: Staphylococcus aureus, ATCC49951, CAMHB, 35° C., 20 hours, read-out: Antibacterial activity (MIC) NB01006
Method in brief: (§1)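 Per CLSI, strains grown overnight on Mueller-Hinton agar are tested in cation-adjusted Mueller-Hinton broth at about 5×10^5 CFU/mL against serially diluted compound, 1% DMSO final. Incubation runs 20 h at 35° C; MIC is judged visually with OD600 support.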

[2] = tested on: S. aureus NB01006-AVR005, gyrA (S84L), grlA (580F) and grlB (E471K); assay: microbe, parasite or virus in culture; conditions: Staphylococcus aureus, 20 h, read-out: Antibacterial activity (MIC) NB01006-AVR005
Method in brief: as §1

[3] = tested on: S. aureus NB01080 fluoroquinolone-resistant clinical isolate; assay: MIC by broth microdilution, S. aureus NB01080; conditions: Staphylococcus aureus, CAMHB, 35° C., 20 hours, read-out: Antibacterial activity (MIC) NB01080
Method in brief: as §1

[4] = tested on: E. faecalis ATCC 29212 (NB04001); assay: MIC by broth microdilution, E. faecalis NB04001; conditions: Enterococcus faecalis, ATCC29212, CAMHB, 35° C., 20 hours, read-out: Antibacterial activity (MIC) NB04001
Method in brief: as §1

[5] = tested on: S. pneumoniae ATCC 25922 (NB07001); assay: MIC by broth microdilution, S. pneumoniae NB07001; conditions: Streptococcus pneumoniae, read-out: Antibacterial activity (MIC) NB07001
Method in brief: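 CAMHB, ~5×10^5 CFU/mL, 2-fold serial dilutions (final DMSO 1%), 35° C, ambient air, 20 h. Read OD600 plus visual check; MIC = lowest conc. with no visible growth, μg/mL.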

[6] = tested on: E. coli ATCC 25922 (NB27001); assay: MIC by broth microdilution, E. coli NB27001; conditions: Escherichia coli, ATCC25922, CAMHB, 35° C., 20 hours, read-out: Antibacterial activity (MIC) NB27001
Method in brief: as §1

[7] = tested on: P. aeruginosa NB52019, wild-type PAO1 strain; assay: MIC by broth microdilution, P. aeruginosa NB52019; conditions: Pseudomonas aeruginosa, CAMHB, 35° C., 20 hours, read-out: Antibacterial activity (MIC) NB52019
Method in brief: as §1

[8] = ATCC25922, S. pneumoniae, CAMHB supplemented with 5% lysed horse blood, 35° C., 20 hours

Measured: MIC

C[C@H]1COc2c(N3CCC(O)(CN)CC3)c(F)cc3cc(C(=O)O)c(=O)n1c23 [Example 1.68, (S)-10-(4-(aminomethyl)-4-hydroxypiperidin-1-yl)-9-fluoro-3-methyl-5-oxo-2,3-dihydro-5H-[1,4]oxazino[2,3,4-ij]quinoline-6-carboxylic acid]
> 32 µg/mL: [1] | [2] | [3] | [4] | [5]; ATCC25922, 20 h | [6] | [7]

C[C@H]1COc2c(N3CCN4CC(F)(F)C[C@H]4C3)c(F)cc3cc(C(=O)O)c(=O)n1c23 [Example 1.72, (S)-10-((S)-7,7-difluorohexahydropyrrolo [1,2-a]pyrazin-2(1H)-yl)-9-fluoro-3-methyl-5-oxo-2,3-dihydro-5H-[1,4]oxazino[2,3,4-ij]quinoline-6-carboxylic acid]
> 32 µg/mL: [2] | [3] | [4] | [5]; ATCC25922, 20 h | [6] | [7]
1 to 32 µg/mL: [1]

C[C@H]1COc2c(N3CCN4C[C@@H](F)C[C@H]4C3)c(F)cc3cc(C(=O)O)c(=O)n1c23 [Example 1.73, (S)-9-fluoro-10-((7S,8aS)-7-fluorohexahydropyrrolo[1,2-a]pyrazin-2(1H)-yl)-3-methyl-5-oxo-2,3-dihydro-5H-[1,4]oxazino[2,3,4-ij]quinoline-6-carboxylic acid]
1 to 32 µg/mL: [1] | [6]
> 32 µg/mL: [2] | [3] | [4] | [5]; ATCC25922, 20 h | [7]

C[C@H]1COc2c(N3C[C@H](F)[C@@H](C4(N)CC4)C3)c(F)cc3cc(C(=O)O)c(=O)n1c23 [Example 1.74, (S)-10-((3R,4R)-3-(1-aminocyclopropyl)-4-fluoropyrrolidin-1-yl)-9-fluoro-3-methyl-5-oxo-2,3-dihydro-5H-[1,4]oxazino[2,3,4-ij]quinoline-6-carboxylic acid]
1 to 32 µg/mL: [2] | [3] | [4] | [6]
< 1 µg/mL: [1] | [5]; ATCC25922, 20 h
> 32 µg/mL: [7]

C[C@H]1COc2c(N3CC[C@@H](C4(N)CCCC4)C3)c(F)cc3cc(C(=O)O)c(=O)n1c23 [Example 1.75, (S)-10-((R)-3-(1-aminocyclopentyl)pyrrolidin-1-yl)-9-fluoro-3-methyl-5-oxo-2,3-dihydro-5H-[1,4]oxazino[2,3,4-ij]quinoline-6-carboxylic acid]
1 to 32 µg/mL: [2] | [3] | [4] | [6]
< 1 µg/mL: [1] | [5]; ATCC25922, 20 h
> 32 µg/mL: [7]

C[C@H]1COc2c(N3CC(CC4(N)CC4)C3)c(F)cc3cc(C(=O)O)c(=O)n1c23 [Example 1.76, (S)-10-(3-((1-aminocyclopropyl)methyl)azetidin-1-yl)-9-fluoro-3-methyl-5-oxo-2,3-dihydro-5H-[1,4]oxazino[2,3,4-ij]quinoline-6-carboxylic acid]
> 32 µg/mL: [1] | [2] | [3] | [4] | [5]; ATCC25922, 20 h | [6] | [7]

C[C@H]1COc2c(N3C[C@@H](CO)[C@@H](CO)C3)c(F)cc3cc(C(=O)O)c(=O)n1c23 [Example 1.79, (S)-10-((3R,4S)-3,4-bis(hydroxymethyl)pyrrolidin-1-yl)-9-fluoro-3-methyl-5-oxo-2,3-dihydro-5H-[1,4]oxazino[2,3,4-ij]quinoline-6-carboxylic acid]
> 32 µg/mL: [2] | [3] | [4] | [5]; ATCC25922, 20 h | [6] | [7]
1 to 32 µg/mL: [1]

NC1([C@@H]2CCN(c3c(F)cc4cc(C(=O)O)c(=O)n5c4c3OC[C@@H]5CO)C2)CC1.O=CO [Example 2, (S)-10-((R)-3-(1-aminocyclopropyl)pyrrolidin-1-yl)-9-fluoro-3-(hydroxymethyl)-5-oxo-2,3-dihydro-5H-[1,4]oxazino[2,3,4-ij]quinoline-6-carboxylic acid formate salt]
> 32 µg/mL: [1] | [2] | [3] | [4] | [5]; [8] | [6] | [7]

COC[C@H]1COc2c(N3CC[C@@H](C4(N)CC4)C3)c(F)cc3cc(C(=O)O)c(=O)n1c23.O=CO [Example 3, (S)-10-((R)-3-(1-aminocyclopropyl)pyrrolidin-1-yl)-9-fluoro-3-(methoxymethyl)-5-oxo-2,3-dihydro-5H-[1,4]oxazino[2,3,4-ij]quinoline-6-carboxylic acid formate salt]
> 32 µg/mL: [1] | [2] | [3] | [4] | [5]; [8] | [6] | [7]

NC1([C@@H]2CCN(c3c(F)cc4cc(C(=O)O)c(=O)n5c4c3OC[C@@H]5CF)C2)CC1 [Example 4, (R)-10-((R)-3-(1-aminocyclopropyl)pyrrolidin-1-yl)-9-fluoro-3-(fluoromethyl)-5-oxo-2,3-dihydro-5H-[1,4]oxazino[2,3,4-ij]quinoline-6-carboxylic acid]
1 to 32 µg/mL: [2] | [3] | [4] | [6]
< 1 µg/mL: [1] | [5]; ATCC25922, 20 h
> 32 µg/mL: [7]

C[C@H]1COc2c(N3CC[C@@H](C4(N)CC4)C3)c(F)cc3cc(C#N)c(=O)n1c23.O=C(O)C(F)(F)F [Example 5, (S)-10-((R)-3-(1-aminocyclopropyl)pyrrolidin-1-yl)-9-fluoro-3-methyl-5-oxo-2,3-dihydro-5H-[1,4]oxazino[2,3,4-ij]quinoline-6-carbonitrile trifluoroacetate salt]
1 to 32 µg/mL: [6] | [7]
< 1 µg/mL: [1] | [2] | [3] | [4] | [5]; [8]

C[C@H]1COc2c(N3CC4CC4(N)C3)c(F)cc3ccc(=O)n1c23 (stereo partly drawn) [Example 6.2, (3S)-10-(1-amino-3-azabicyclo[3.1.0]hexan-3-yl)-9-fluoro-3-methyl-2,3-dihydro-5H-[1,4]oxazino[2,3,4-ij]quinolin-5-one hydrochloride salt]
> 32 µg/mL: [7]
1 to 32 µg/mL: [1] | [2] | [4] | [5]; ATCC25922, 20 h | [6]
< 1 µg/mL: [3]

C[C@H]1COc2c(N3CC[C@@H](C4(N)CC4)C3)c(F)cc3c(CN)cc(=O)n1c23 [Example 7.9, (S)-10-((R)-3-(1-aminocyclopropyl)pyrrolidin-1-yl)-7-(aminomethyl)-9-fluoro-3-methyl-2,3-dihydro-5H-[1,4]oxazino[2,3,4-ij]quinolin-5-one]
< 1 µg/mL: [1] | [2] | [4] | [5]; ATCC25922, 20 h | [6]
1 to 32 µg/mL: [3] | [7]

C[C@H]1COc2c(N3CC4CC4(N)C3)c(F)cc3c(CN)cc(=O)n1c23 (stereo partly drawn) [Example 7.10, (3S)-10-(1-amino-3-azabicyclo[3.1.0]hexan-3-yl)-7-(aminomethyl)-9-fluoro-3-methyl-2,3-dihydro-5H-[1,4]oxazino[2,3,4-ij]quinolin-5-one]
< 1 µg/mL: [1] | [2] | [5]; ATCC25922, 20 h | [6]
1 to 32 µg/mL: [3] | [4] | [7]

CC1Cc2c(N3CC[C@@H]([C@H](C)N)C3)c(F)cc3cc(C(=O)O)c(=O)n1c23 (some centres unmarked) [Example 9.2]
< 1 µg/mL: [1] | [4] | [5]; ATCC25922, 20 h
1 to 32 µg/mL: [3] | [6]
> 32 µg/mL: [2] | [7]

CC1Cc2c(N3CCNCC3)c(F)cc3cc(C(=O)O)c(=O)n1c23 (centres unmarked) [Example 9.3, 8-fluoro-2-methyl-4-oxo-9-(piperazin-1-yl)-1,2-dihydro-4H-pyrrolo[3,2,1-ij]quinoline-5-carboxylic acid]
> 32 µg/mL: [1] | [2] | [3] | [4] | [5]; [8] | [7]
1 to 32 µg/mL: [6]

C[C@H]1CNc2c(N3CC[C@@H](C4(N)CC4)C3)c(F)cc3cc(C(=O)O)c(=O)n1c23.Cl [Example 10, (S)-10-((R)-3-(1-aminocyclopropyl)pyrrolidin-1-yl)-9-fluoro-3-methyl-5-oxo-2,3-dihydro-1H,5H-pyrido[1,2,3-de]quinoxaline-6-carboxylic acid hydrochloride salt]
> 32 µg/mL: [2] | [7]
1 to 32 µg/mL: [1] | [3] | [4] | [5]; [8] | [6]
